Laboratory results: US20250243196A1, “CITRON KINASE INHIBITORS” (The Cleveland Clinic Foundation, priority 2021, published 2025)

Tests used:
Type in all cases: biochemical
Citron kinase = Citron kinase (Homo sapiens (Human), UniProt O14578); test: Radiometric citron kinase assay (Eurofins Cat #16-040KP); settings: mean of at least two independent assays; read-out: Radiometric CitK IC50
Procedure, shortened: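 Radiometric KinaseProfiler format: test compound incubated with kinase, substrate, cofactors and radiolabelled ATP; unreacted ATP washed away and radiolabelled phosphate incorporated into substrate measured. IC50 derived from inhibition of phosphorylation. Values are means of at least two independent assays.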

Axl(h) = Axl(h) (Homo sapiens (Human), UniProt P30530); test: KinaseProfiler panel; set-up: dose or concentration left out as unconfirmed; settings: activity remaining
CDK1/cyclinB(h) = CDK1/cyclinB(h) (Homo sapiens (Human), UniProt P06493); test: KinaseProfiler panel; set-up: dose or concentration left out as unconfirmed; settings: activity remaining
cKit(h) = cKit(h) (Homo sapiens (Human), UniProt P10721); test: KinaseProfiler panel; set-up: dose or concentration left out as unconfirmed; settings: activity remaining
cSRC(h) = cSRC(h) (Homo sapiens (Human), UniProt P12931); test: KinaseProfiler panel; set-up: dose or concentration left out as unconfirmed; settings: activity remaining
DCAMKL2(h) = DCAMKL2(h) (Homo sapiens (Human), UniProt Q8N568); test: KinaseProfiler panel; set-up: dose or concentration left out as unconfirmed; settings: activity remaining
EphB1(h) = EphB1(h) (Homo sapiens (Human), UniProt P54762); test: KinaseProfiler panel; set-up: dose or concentration left out as unconfirmed; settings: activity remaining
GSK3α(h) = GSK3α(h) (Homo sapiens (Human), UniProt P49840); test: KinaseProfiler panel; set-up: dose or concentration left out as unconfirmed; settings: activity remaining
Hck(h) activated = Hck(h) activated (Homo sapiens (Human), UniProt P08631); test: KinaseProfiler panel; set-up: dose or concentration left out as unconfirmed; settings: activity remaining
IGF-1R(h), activated = IGF-1R(h), activated (Homo sapiens (Human), UniProt P08069); test: KinaseProfiler panel; set-up: dose or concentration left out as unconfirmed; settings: activity remaining
KDR(h) = KDR(h) (Homo sapiens (Human), UniProt P35968); test: KinaseProfiler panel; set-up: dose or concentration left out as unconfirmed; settings: activity remaining
LIMK2(h) = LIMK2(h) (Homo sapiens (Human), UniProt P53671); test: KinaseProfiler panel; set-up: dose or concentration left out as unconfirmed; settings: activity remaining
NEK4(h) = NEK4(h) (Homo sapiens (Human), UniProt P51957); test: KinaseProfiler panel; set-up: dose or concentration left out as unconfirmed; settings: activity remaining
NEK6(h) = NEK6(h) (Homo sapiens (Human), UniProt Q9HC98); test: KinaseProfiler panel; set-up: dose or concentration left out as unconfirmed; settings: activity remaining
PAK6(h) = PAK6(h) (Homo sapiens (Human), UniProt Q9NQU5); test: KinaseProfiler panel; set-up: dose or concentration left out as unconfirmed; settings: activity remaining
PDHK2(h) = PDHK2(h) (Homo sapiens (Human), UniProt Q15119); test: KinaseProfiler panel; set-up: dose or concentration left out as unconfirmed; settings: activity remaining
PDHK4(h) = PDHK4(h) (Homo sapiens (Human), UniProt Q16654); test: KinaseProfiler panel; set-up: dose or concentration left out as unconfirmed; settings: activity remaining
PhKγ1(h) = PhKγ1(h) (Homo sapiens (Human), UniProt Q16816); test: KinaseProfiler panel; set-up: dose or concentration left out as unconfirmed; settings: activity remaining
PIP4K2a(h) = PIP4K2a(h) (Homo sapiens (Human), UniProt P48426); test: KinaseProfiler panel; set-up: dose or concentration left out as unconfirmed; settings: activity remaining
PKCα(h) = PKCα(h) (Homo sapiens (Human), UniProt P17252); test: KinaseProfiler panel; set-up: dose or concentration left out as unconfirmed; settings: activity remaining
PKCμ(h) = PKCμ(h) (Homo sapiens (Human), UniProt Q15139); test: KinaseProfiler panel; set-up: dose or concentration left out as unconfirmed; settings: activity remaining
Pyk2(h) = Pyk2(h) (Homo sapiens (Human), UniProt Q14289); test: KinaseProfiler panel; set-up: dose or concentration left out as unconfirmed; settings: activity remaining
STK32C(h) = STK32C(h) (Homo sapiens (Human), UniProt Q86UX6); test: KinaseProfiler panel; settings: activity remaining
TAO1(h) = TAO1(h) (Homo sapiens (Human), UniProt Q7L7X3); test: KinaseProfiler panel; set-up: dose or concentration left out as unconfirmed; settings: activity remaining
Tec(h) activated = Tec(h) activated (Homo sapiens (Human), UniProt P42680); test: KinaseProfiler panel; set-up: dose or concentration left out as unconfirmed; settings: activity remaining
TrkC(h) = TrkC(h) (Homo sapiens (Human), UniProt Q16288); test: KinaseProfiler panel; set-up: dose or concentration left out as unconfirmed; settings: activity remaining
TTBK2(h) = TTBK2(h) (Homo sapiens (Human), UniProt Q6IQ55); test: KinaseProfiler panel; set-up: dose or concentration left out as unconfirmed; settings: activity remaining
TTBK2(h), sequence (Q6IQ55 whole entry): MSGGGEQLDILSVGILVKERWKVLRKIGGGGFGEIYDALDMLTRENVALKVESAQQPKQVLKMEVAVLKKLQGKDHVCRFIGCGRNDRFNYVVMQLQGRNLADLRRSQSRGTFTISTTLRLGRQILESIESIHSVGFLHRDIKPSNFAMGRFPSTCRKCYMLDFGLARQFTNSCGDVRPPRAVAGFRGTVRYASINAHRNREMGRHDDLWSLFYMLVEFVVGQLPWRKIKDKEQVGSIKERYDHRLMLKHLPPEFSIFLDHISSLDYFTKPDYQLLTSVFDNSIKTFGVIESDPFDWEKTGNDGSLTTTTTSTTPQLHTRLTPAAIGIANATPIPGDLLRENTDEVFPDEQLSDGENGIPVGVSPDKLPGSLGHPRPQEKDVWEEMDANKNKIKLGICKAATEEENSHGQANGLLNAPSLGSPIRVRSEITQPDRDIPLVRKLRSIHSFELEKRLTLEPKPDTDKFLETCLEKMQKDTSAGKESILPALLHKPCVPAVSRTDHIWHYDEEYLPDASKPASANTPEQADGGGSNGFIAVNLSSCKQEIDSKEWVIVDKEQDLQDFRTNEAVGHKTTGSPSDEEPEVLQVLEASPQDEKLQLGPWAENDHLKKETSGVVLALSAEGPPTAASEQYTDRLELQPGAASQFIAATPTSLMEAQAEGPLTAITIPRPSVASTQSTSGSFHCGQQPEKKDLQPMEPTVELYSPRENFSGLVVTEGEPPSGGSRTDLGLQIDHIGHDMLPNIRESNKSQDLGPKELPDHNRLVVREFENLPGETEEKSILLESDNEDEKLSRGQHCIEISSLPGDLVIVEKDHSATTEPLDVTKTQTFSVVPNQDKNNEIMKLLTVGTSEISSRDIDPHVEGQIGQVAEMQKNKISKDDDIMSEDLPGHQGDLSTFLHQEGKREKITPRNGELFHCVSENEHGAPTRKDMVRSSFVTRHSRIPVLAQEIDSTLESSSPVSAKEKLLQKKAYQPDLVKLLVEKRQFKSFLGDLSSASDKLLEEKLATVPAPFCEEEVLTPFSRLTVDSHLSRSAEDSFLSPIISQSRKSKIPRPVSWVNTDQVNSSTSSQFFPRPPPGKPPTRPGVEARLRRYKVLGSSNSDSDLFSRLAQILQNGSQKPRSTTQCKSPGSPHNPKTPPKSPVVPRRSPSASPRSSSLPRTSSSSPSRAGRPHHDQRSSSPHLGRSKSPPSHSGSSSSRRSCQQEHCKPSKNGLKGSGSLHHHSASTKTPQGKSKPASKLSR

LIMK2(h), sequence (P53671 whole entry): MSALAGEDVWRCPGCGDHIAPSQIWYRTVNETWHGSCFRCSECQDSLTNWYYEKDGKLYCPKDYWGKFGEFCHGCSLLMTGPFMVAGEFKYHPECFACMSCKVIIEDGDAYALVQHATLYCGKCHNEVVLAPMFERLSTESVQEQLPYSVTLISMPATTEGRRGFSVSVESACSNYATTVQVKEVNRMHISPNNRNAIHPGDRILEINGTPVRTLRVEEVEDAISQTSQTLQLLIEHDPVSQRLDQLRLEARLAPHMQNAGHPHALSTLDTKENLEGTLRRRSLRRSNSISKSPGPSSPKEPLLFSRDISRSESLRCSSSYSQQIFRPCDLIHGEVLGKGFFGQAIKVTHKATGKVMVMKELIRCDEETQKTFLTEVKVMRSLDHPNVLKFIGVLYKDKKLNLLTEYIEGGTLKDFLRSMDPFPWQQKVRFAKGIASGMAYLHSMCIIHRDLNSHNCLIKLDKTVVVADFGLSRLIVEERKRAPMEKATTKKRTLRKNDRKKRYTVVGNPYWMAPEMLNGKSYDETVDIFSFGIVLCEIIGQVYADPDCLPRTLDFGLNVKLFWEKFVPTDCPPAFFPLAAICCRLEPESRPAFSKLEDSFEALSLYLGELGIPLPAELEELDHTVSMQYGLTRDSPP
PhKγ1(h), sequence (Q16816 whole entry): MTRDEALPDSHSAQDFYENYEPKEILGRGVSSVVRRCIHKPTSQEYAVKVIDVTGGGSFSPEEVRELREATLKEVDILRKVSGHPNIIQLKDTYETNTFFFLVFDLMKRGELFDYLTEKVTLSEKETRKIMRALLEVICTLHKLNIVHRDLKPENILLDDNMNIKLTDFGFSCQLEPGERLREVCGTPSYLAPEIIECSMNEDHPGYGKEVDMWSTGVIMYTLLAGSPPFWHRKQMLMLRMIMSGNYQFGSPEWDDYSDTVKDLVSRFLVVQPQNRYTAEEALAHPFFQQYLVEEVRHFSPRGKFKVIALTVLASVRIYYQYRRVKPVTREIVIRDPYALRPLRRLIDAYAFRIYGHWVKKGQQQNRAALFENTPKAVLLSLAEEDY
STK32C(h), sequence (Q86UX6 whole entry): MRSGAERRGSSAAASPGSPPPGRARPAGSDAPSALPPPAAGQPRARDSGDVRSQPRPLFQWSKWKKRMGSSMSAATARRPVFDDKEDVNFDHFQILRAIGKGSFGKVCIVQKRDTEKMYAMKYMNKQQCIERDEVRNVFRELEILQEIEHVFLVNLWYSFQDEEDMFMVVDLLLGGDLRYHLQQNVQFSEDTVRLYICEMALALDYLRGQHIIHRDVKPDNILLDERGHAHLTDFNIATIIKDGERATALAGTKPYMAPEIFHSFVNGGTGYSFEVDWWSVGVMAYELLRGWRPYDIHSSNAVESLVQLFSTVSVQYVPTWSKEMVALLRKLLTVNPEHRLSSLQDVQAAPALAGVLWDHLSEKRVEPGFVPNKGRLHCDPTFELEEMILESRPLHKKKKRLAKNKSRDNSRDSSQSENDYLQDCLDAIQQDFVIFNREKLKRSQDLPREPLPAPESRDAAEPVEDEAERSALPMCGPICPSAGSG
Citron kinase, sequence (O14578 whole entry): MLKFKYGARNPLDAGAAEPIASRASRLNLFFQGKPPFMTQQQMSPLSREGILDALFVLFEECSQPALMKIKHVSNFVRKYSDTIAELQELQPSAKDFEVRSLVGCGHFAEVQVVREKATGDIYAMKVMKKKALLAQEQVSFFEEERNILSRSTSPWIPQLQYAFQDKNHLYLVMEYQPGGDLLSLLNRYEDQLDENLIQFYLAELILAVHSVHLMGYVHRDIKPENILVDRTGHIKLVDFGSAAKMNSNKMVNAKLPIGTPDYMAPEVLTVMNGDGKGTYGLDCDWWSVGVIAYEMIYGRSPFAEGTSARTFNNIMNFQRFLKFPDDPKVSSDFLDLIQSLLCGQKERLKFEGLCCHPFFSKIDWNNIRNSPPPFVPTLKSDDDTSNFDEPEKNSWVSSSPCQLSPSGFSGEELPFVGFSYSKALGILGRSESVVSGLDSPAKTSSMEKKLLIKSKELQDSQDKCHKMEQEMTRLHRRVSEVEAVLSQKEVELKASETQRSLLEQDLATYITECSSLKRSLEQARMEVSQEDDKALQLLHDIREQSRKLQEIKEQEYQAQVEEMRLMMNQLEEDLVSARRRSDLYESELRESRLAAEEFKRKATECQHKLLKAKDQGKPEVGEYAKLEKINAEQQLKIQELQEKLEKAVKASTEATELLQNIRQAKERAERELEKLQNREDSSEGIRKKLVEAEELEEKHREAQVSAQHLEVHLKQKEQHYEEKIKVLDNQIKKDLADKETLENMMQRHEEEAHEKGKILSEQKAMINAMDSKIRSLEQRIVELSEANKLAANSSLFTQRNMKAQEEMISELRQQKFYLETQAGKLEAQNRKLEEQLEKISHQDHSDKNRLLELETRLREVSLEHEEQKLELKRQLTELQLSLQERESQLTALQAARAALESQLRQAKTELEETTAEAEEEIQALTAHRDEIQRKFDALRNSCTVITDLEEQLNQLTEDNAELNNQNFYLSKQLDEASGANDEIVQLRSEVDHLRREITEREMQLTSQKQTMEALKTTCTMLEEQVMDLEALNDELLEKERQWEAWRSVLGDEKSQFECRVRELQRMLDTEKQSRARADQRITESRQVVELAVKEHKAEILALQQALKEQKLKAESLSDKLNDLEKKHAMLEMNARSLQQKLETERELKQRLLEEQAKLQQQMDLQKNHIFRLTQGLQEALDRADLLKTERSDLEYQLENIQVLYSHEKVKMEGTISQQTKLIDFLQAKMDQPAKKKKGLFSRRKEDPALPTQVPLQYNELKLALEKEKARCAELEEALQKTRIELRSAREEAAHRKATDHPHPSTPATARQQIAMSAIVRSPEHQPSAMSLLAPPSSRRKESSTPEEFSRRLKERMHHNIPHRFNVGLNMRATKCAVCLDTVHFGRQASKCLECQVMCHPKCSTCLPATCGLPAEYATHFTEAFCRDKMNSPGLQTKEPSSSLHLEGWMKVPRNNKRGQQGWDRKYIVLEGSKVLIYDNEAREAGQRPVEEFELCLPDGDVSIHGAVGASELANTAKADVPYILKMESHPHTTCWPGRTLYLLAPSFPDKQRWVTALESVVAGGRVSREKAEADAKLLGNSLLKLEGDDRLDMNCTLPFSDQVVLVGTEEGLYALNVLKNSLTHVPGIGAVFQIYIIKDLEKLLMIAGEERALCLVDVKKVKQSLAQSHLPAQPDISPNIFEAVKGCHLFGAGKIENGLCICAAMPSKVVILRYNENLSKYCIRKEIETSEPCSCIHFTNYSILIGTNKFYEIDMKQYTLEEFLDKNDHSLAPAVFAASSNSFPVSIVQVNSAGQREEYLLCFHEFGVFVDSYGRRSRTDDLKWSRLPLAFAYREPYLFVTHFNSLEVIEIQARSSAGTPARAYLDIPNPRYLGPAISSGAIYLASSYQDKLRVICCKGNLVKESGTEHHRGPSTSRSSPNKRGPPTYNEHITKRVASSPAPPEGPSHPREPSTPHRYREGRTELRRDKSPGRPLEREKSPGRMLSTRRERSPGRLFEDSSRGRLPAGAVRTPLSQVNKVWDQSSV
NEK6(h), sequence (Q9HC98 whole entry): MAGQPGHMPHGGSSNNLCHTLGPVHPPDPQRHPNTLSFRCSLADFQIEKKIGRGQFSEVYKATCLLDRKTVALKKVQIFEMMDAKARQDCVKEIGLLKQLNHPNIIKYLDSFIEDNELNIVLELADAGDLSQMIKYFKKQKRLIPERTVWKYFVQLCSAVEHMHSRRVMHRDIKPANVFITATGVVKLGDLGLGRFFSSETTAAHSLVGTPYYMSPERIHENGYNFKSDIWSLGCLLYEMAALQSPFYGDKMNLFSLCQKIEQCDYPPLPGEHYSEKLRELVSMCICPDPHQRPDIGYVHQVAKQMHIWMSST

Cc1cc2c(-c3ccc(NC(=O)[C@H](N)CC(C)(C)C)cc3C)ccnc2[nH]1 [Compound F-90, (2R)-2-Amino-4,4-dimethyl-N-[3-methyl-4-(2-methyl-1H-pyrrolo[2,3-b]pyridin-4-yl)phenyl]pentanamide]
IC50 (Citron kinase): 12 nM | % Activity (Axl(h)): 91% | % Activity (CDK1/cyclinB(h)): 94% | % Activity (cKit(h)): 85% | % Activity (cSRC(h)): 93% | % Activity (DCAMKL2(h)): 104% | % Activity (EphB1(h)): 83% | % Activity (GSK3α(h)): 87% | % Activity (Hck(h) activated): 111% | % Activity (IGF-1R(h), activated): 93% | % Activity (KDR(h)): 78% | % Activity (LIMK2(h)): 72% | % Activity (NEK4(h)): 90% | % Activity (NEK6(h)): 86% | % Activity (PAK6(h)): 101% | % Activity (PDHK2(h)): 87% | % Activity (PDHK4(h)): 101% | % Activity (PhKγ1(h)): 101% | % Activity (PIP4K2a(h)): 100% | % Activity (PKCα(h)): 92% | % Activity (PKCμ(h)): 109% | % Activity (Pyk2(h)): 76% | % Activity (STK32C(h)): 85% | % Activity (TAO1(h)): 83% | % Activity (Tec(h) activated): 126% | % Activity (TrkC(h)): 86% | % Activity (TTBK2(h)): 94%
